Laboratory results published in US7176199B2, “Aryl-substituted alicyclic compound and medical composition comprising the same” (Dainippon Pharmaceutical Co., Ltd., priority 2001, dated 2007).

What was measured:
[1] = biological target: T1, αIIbβ3 integrin (Homo sapiens, UniProt P05106+P08514); experiment: Assay for the inhibition of αIIbβ3 integrin binding (fibrinogen as ligand, integrin captured from platelet lysate); conditions: inhibition of specific binding of biotinylated fibrinogen to αIIbβ3 integrin from human platelet lysate
T1 construct: from tissue; host or cells: human platelets (Triton X-100 lysate)
Procedure: Experiment 2: Assay for the Inhibition of αIIbβ3 Integrin Binding
This experiment was carried out based on the method described in Thromb. Haemostasis, 75, 339 (1996), Blood, 93, 2559 (1999), using fibrinogen as a ligand. According to the method described in the above literatures, assay for the inhibition of αIIbβ3 integrin binding can be achieved by capturing αIIbβ3 integrin from platelet lysate with the use of an activated antibody against αIIbβ3 integrin.
Human platelets were isolated in a conventional manner. At 25° C., the isolated platelets were adjusted to a concentration of 1.25×10^9/ml with TBS+[50 mM Tris-HCl (pH 7.4), 150 mM NaCl, 2 mM CaCl2], and then ⅛ volume of TBS^+ containing 2 mM leupepsin and 10 mM PMSF was added and stirred gently. Nest, 1/9 volume of TBS+ containing 10% Triton X-100 was added and stirred gently. After standing on ice for 30 minutes, a platelet lysate was prepared from the mixture by discarding the insoluble fraction with centrifugation (10,000 g, 15 minutes).
Anti-mouse IgG goat antibody (Jackson Immunoresearch Laboratories, Inc., USA) was adjusted to a concentration of 5 μg/ml with sodium carbonate buffer (pH 9.6) and added to plates at 50 μl/well. The plate was left at 4° C. overnight for immobilization of the antibody. All subsequent steps were done at 25° C., and the procedure for each well was described hereafter.
The well was washed once with TBS^+, and then 200 μl of TBS^+ containing 5% BSA was added to the well and left for one hour for blocking. The well was washed with a reaction solution (TBS^+ containing 0.1% BSA and 0.05% Triton X-100) 4 times, and then 50 μl of anti-human αIIbβ3 integrin activated monoclonal antibody (TAKARA SHUZO CO., LTD, Japan, PT25-2 strain) adjusted to 5 μg/ml with the reaction solution was added to the well. After one hour reaction, the well was washed 4 times with the reaction solution, and 50 μl of the platelet lysate diluted 1:2 with the reaction solution was added to the well. Following 2 hours reaction, the well was washed 4 times with the reaction solution, and 50 μl of the reaction solution was added to the well. Subsequently, 25 μl of a test compound solution adjusted to each concentration with the reaction solution was added, and then mixed with 25 μl of biotinylated fibrinogen (Calbiochem, Germany) adjusted to 2 μg/ml with the reaction solution. The mixture was reacted for one hour. After washing 4 times with the reaction solution, 100 μl of alkaline phosphatase-labeled streptoavidin (Gibco BRL, USA) diluted 1:500 with the reaction solution was added to the well. Following 30 minutes reaction, the well was washed 4 times with the wash solution. Next, 50 μl of the NaDPH solution (Invitrogen, former company name: Gibco BRL, USA) was added and reacted for 20 minutes, and then 50 μl of an amplification solution containing diaphorase and alcohol dehydrogenase (Invitrogen, former company name: Gibco BRL, USA) was added. Color was developed for 20 minutes and the reaction was stopped by adding 50 μl of 0.5 M sulfuric acid.
(§1) The absorbance at 495 nm was measured with a plate reader to obtain a total binding. To obtain a nonspecific binding, EDTA adjusted to 20 mM with the reaction solution was added instead of the test compound solution. A specific binding was calculated by subtracting the nonspecific binding from the total binding.

[2] = biological target: αvβ3 integrin (Homo sapiens, UniProt P05106+P06756); experiment: Assay for the inhibition of αvβ3 integrin binding (vitronectin as ligand); design: purchased Chemicon International, Inc., USA; conditions: inhibition of specific binding of biotinylated human vitronectin to immobilized αvβ3 integrin
Procedure: Experiment 1: Assay for the Inhibition of αvβ3 integrin binding
This experiment was carried out based on the method described in […].
Purified human αvβ3 integrin (Chemicon International, Inc., USA) was adjusted to a concentration of 1 μg/ml with TBS^++ [20 mM Tris-HCl (pH 7.4), 150 mM NaCl, 1 mM CaCl2, 1 mM MgCl2], and the diluted solution was added to plates (Labsystems, Finland) at 50 μl/well. The plate was left at 4° C. overnight for immobilization of the αvβ3 integrin. All subsequent steps were done at 25° C., and the procedure for each well was described hereafter.
The solution was discarded, and then 200 μl of TBS^++ containing 1% BSA (Wako Pure Chemical Industries, Ltd., Japan) was added to the well and left for one hour for blocking. The well was washed with a wash solution (TBS^++ containing 0.01% Tween 20) 4 times, and 50 μl of a reaction solution (TBS^++ containing 0.1% BSA and 0.01% Tween 20) was added to the well. Subsequently, 25 μl of a test compound solution adjusted to each concentration with the reaction solution was added, and then mixed with 25 μl of biotinylated (Amersham Pharmacia Biotech, UK) human vitronectin (Gibco BRL, USA) adjusted to 0.4 μg/ml with the reaction solution. The mixture was reacted for 2 hours. After washing 4 times with the wash solution, 100 μl of peroxidase-labeled streptoavidin (Amersham Pharmacia Biotech, UK) diluted 1:500 with the reaction solution was added to the well. Following 30 minutes reaction, the well was washed 4 times with the wash solution, and 100 μl of a TMB substrate solution (Bio-Rad Laboratories, USA) was added to the well. Color was developed for 20 minutes and the reaction was stopped by adding 100 μl of 0.5 M sulfuric acid.
as §1, with “450” for “495”, “reader (Molecular Devices, USA)” for “reader”

T1 sequence (P08514 32-887 limits assumed): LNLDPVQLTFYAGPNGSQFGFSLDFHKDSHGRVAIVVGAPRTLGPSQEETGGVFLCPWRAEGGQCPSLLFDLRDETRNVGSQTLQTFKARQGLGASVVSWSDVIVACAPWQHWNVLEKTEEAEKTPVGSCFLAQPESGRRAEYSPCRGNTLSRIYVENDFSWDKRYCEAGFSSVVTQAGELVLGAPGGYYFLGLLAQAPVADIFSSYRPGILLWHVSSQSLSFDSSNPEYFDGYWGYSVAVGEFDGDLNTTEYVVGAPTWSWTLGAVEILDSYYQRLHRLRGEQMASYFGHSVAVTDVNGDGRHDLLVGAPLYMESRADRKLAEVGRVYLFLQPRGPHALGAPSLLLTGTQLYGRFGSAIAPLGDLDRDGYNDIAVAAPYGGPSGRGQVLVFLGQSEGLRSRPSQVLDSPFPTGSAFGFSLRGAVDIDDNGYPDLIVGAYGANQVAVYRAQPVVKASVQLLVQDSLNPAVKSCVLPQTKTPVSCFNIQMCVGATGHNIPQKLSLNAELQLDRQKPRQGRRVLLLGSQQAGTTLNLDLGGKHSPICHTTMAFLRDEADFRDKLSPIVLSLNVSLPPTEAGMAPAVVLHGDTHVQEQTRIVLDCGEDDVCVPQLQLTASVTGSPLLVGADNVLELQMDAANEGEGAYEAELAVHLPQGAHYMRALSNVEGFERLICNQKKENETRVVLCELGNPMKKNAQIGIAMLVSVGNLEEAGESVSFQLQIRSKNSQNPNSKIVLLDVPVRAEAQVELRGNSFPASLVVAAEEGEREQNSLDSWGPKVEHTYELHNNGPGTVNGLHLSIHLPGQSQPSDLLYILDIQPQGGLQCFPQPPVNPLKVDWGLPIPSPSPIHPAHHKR
T1 sequence (P08514 891-1039 partner limits assumed): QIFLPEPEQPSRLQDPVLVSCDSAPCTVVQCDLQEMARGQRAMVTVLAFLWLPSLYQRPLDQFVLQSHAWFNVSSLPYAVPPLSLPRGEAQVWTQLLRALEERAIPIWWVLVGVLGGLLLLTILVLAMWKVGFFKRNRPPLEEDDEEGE
T1 sequence (P05106 27-788): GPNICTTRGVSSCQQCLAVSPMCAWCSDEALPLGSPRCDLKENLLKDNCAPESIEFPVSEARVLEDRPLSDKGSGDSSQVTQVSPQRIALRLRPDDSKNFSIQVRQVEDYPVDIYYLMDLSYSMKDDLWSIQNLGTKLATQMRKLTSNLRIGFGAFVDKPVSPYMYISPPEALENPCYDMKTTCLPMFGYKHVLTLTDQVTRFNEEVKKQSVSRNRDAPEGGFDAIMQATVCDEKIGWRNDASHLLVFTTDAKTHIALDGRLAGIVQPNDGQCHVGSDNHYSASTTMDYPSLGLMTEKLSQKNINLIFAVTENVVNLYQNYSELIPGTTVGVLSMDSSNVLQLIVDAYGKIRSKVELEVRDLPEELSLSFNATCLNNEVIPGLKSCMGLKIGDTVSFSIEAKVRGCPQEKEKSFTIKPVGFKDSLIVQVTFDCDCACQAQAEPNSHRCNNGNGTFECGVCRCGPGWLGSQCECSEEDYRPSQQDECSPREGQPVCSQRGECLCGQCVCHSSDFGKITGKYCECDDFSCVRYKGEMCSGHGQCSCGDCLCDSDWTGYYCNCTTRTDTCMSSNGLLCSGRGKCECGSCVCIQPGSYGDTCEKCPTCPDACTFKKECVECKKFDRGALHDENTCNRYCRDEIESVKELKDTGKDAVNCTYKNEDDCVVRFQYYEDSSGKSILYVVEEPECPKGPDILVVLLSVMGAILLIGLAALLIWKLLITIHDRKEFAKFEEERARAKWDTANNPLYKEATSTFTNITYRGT
Chain of αvβ3 integrin (P06756 31-889 limits assumed): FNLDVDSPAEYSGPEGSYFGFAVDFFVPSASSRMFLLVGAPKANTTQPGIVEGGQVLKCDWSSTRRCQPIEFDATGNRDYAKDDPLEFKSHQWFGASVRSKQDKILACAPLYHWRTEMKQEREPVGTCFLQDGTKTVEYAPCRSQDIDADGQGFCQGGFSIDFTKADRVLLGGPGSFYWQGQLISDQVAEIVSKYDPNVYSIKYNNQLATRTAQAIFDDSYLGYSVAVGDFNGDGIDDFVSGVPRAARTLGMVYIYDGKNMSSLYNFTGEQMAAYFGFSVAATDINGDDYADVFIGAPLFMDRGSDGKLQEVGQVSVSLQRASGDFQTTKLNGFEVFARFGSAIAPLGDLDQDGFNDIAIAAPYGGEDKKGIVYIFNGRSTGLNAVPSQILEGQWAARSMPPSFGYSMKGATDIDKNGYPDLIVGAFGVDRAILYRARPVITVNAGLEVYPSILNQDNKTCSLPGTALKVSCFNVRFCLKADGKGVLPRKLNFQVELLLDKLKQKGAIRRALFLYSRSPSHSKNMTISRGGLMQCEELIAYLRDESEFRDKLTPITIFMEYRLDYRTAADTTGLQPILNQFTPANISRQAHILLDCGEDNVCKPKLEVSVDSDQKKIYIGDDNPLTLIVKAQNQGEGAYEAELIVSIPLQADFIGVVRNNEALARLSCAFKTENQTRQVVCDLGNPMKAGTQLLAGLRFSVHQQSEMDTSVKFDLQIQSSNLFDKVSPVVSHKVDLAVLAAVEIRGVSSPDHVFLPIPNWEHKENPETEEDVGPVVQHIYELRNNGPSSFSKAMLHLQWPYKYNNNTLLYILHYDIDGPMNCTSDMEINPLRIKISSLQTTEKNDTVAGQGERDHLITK
Chain of αvβ3 integrin (P06756 891-1048 partner limits assumed): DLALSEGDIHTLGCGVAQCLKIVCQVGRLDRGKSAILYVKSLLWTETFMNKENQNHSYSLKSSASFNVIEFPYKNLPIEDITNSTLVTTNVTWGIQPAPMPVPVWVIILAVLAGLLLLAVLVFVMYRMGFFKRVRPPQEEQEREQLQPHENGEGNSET
Chain of αvβ3 integrin (P05106 27-788): as the sequence (P05106 27-788) above

Compound	IC50 [1]	IC50 [2]
O=C(N[C@@H](CCC(=O)N1CCN(c2cccc(NC3=NCC(F)CN3)c2)CC1)C(=O)O)OCc1ccccc1 (stereo partly drawn) [Ex. 124, (2S)-2-benzyloxycarbonylamino-5-[4-[3-(5-fluoro-1,4,5,6-tetrahydropyrimidin-2-yl)aminophenyl]piperazin-1-yl]-5-oxopentanoic acid]	540 nM	0.063 nM
O=C(N[C@@H](CCC(=O)N1CCN(c2cccc(NC3=NCC(O)CN3)c2)CC1)C(=O)O)OCc1ccccc1 (stereo partly drawn) [Ex. 125]	340 nM	0.15 nM
CCCCCCOC(=O)N[C@@H](CCC(=O)N1CCN(c2cccc(NC3=NCC(F)CN3)c2)CC1)C(=O)O (stereo partly drawn) [Ex. 130, (2S)-2-hexyloxycarbonylamino-5-[4-[3-(5-fluoro-1,4,5,6-tetrahydropyrimidin-2-yl)aminophenyl]piperazin-1-yl]-5-oxopentanoic acid]	> 1000 nM	0.058 nM
CCCCCCOC(=O)N[C@@H](CCC(=O)N1CCN(c2cccc(NC3=NCC(O)CN3)c2)CC1)C(=O)O (stereo partly drawn) [Ex. 131]	57 nM	0.3 nM
CCCCCCCCCCOC(=O)N[C@@H](CCC(=O)N1CCN(c2cccc(NC3=NCC(C)(C)CN3)c2)CC1)C(=O)O [Ex. 132]	> 1000 nM	1.7 nM
CCCCCCCCCCOC(=O)N[C@@H](CCC(=O)N1CCN(c2cccc(NC3=NCC(F)CN3)c2)CC1)C(=O)O (stereo partly drawn) [Ex. 133]	> 1000 nM	0.26 nM
CCCCCCCCCCOC(=O)N[C@@H](CCC(=O)N1CCN(c2cccc(NC3=NCC(O)CN3)c2)CC1)C(=O)O (stereo partly drawn) [Ex. 134]	> 1000 nM	0.64 nM
CCCCCCCCCCOC(=O)N[C@@H](CCC(=O)N1CCN(c2cccc(NC3=NCC(C)CN3)c2)CC1)C(=O)O (stereo partly drawn) [Ex. 135]	> 1000 nM	0.74 nM
CCCCCCOC(=O)N[C@@H](CCC(=O)N1CCN(c2cccc(NC3=NCCCN3)c2)CC1)C(=O)O [Ex. 137, (2S)-2-hexyloxycarbonylamino-5-[4-[3-(1,4,5,6-tetrahydropyrimidin-2-yl)aminophenyl]piperazin-1-yl]-5-oxopentanoic acid]	880 nM	0.28 nM
Cc1cc(C)c(S(=O)(=O)N[C@@H](CCC(=O)N2CCN(c3cccc(NC4=NCCCN4)c3)CC2)C(=O)O)c(C)c1 [Ex. 140]	30 nM	0.22 nM
O=C(N[C@@H](CNC(=O)N1CCN(c2cccc(NC3=NCCCN3)c2)CC1)C(=O)O)OCc1ccccc1 [Ex. 145, (2S)-2-benzyloxycarbonylamino-3-[[4-[3-(1,4,5,6-tetrahydropyrimidin-2-yl)aminophenyl]piperazin-1-yl]carbonylamino]-propanoic acid]	380 nM	0.041 nM
O=C(C[C@H](NC(=O)OCc1ccccc1)C(=O)O)NC1CCN(c2cccc(NC3=NCCCN3)c2)CC1 [Ex. 146, (2S)-2-benzyloxycarbonylamino-4-[[1-[3-(1,4,5,6-tetrahydropyrimidin-2-yl)aminophenyl]piperidin-4-yl]amino]-4-oxobutanoic acid]	4200 nM	1 nM
O=C(N[C@@H](CCC(=O)N1CCC(c2cccc(NC3=NCCCN3)c2)CC1)C(=O)O)OCc1ccccc1 [Ex. 148, (2S)-2-benzyloxycarbonylamino-5-[4-[3-(1,4,5,6-tetrahydropyrimidin-2-yl)aminophenyl]piperidin-1-yl]-5-oxopentanoic acid]	420 nM	0.17 nM
Cc1cc(N2CCC(C(=O)NC[C@H](NC(=O)OCc3ccccc3)C(=O)O)CC2)nc(NC2=NCCCN2)n1 [Ex. 150, (2S)-2-benzyloxycarbonylamino-3-[[1-[2-(1,4,5,6-tetrahydropyrimidin-2-yl)amino-6-methylpyrimidin-4-yl]piperidin-4-yl]-carbonylamino]propanoic acid]	52 nM	0.081 nM
COc1ccc(NC2=NCCCN2)cc1N1CCC(C(=O)NC[C@H](NC(=O)OCc2ccccc2)C(=O)O)CC1 [Ex. 152, (2S)-2-benzyloxycarbonylamino-3-[[1-[2-methoxy-5-(1,4,5,6-tetrahydropyrimidin-2-yl)aminophenyl]piperidin-4-yl]carbonylamino]propanoic acid]	13 nM	0.055 nM
Cc1ccc(N2CCC(C(=O)NC[C@H](NC(=O)OCc3ccccc3)C(=O)O)CC2)cc1NC1=NCCCN1 [Ex. 153, (2S)-2-benzyloxycarbonylamino-3-[[1-[4-methyl-3-(1,4,5,6-tetrahydropyrimidin-2-yl)aminophenyl]piperidin-4-yl]-carbonylamino]propanoic acid]	94 nM	0.14 nM
COc1ccc(NC2=NCCCN2)cc1N1CCN(C(=O)CC[C@H](NC(=O)OCc2ccccc2)C(=O)O)CC1 [Ex. 154, (2S)-2-benzyloxycarbonylamino-5-[4-[2-methoxy-5-(1,4,5,6-tetrahydropyrimidin-2-yl)aminophenyl]piperazin-1-yl]-5-oxopentanoic acid]	530 nM	0.096 nM
O=C(N[C@@H](CNC(=O)C1CCN(c2cc(F)cc(NC3=NCCCN3)c2)CC1)C(=O)O)OCc1ccccc1 [Ex. 156, (2S)-2-benzyloxycarbonylamino-3-[[1-[5-fluoro-3-(1,4,5,6-tetrahydropyrimidin-2-yl)aminophenyl]piperidin-4-yl]carbonylamino]-propanoic acid]	43 nM	0.055 nM
O=C(N[C@@H](CCC(=O)N1CCN(c2cc(F)cc(NC3=NCCCN3)c2)CC1)C(=O)O)OCc1ccccc1 [Ex. 158, (2S)-2-benzyloxycarbonylamino-5-[4-[5-fluoro-3-(1,4,5,6-tetrahydropyrimidin-2-yl)aminophenyl]piperazin-1-yl]-5-oxopentanoic acid]	750 nM	0.14 nM
O=C(N[C@@H](CNC(=O)C1CCN(c2cc(NC3=NCCCN3)ccn2)CC1)C(=O)O)OCc1ccccc1 [Ex. 159, (2S)-2-benzyloxycarbonylamino-3-[[1-[4-(1,4,5,6-tetrahydropyrimidin-2-yl)aminopyridin-2-yl]piperidin-4-yl]carbonylamino]-propanoic acid]	86 nM	0.06 nM
O=C(N[C@@H](CNC(=O)C1CCN(c2cc(NC3=NCC(F)CN3)ccn2)CC1)C(=O)O)OCc1ccccc1 (stereo partly drawn) [Ex. 160, (2S)-2-benzyloxycarbonylamino-3-[[1-[4-(5-fluoro-1,4,5,6-tetrahydropyrimidin-2-yl)aminopyridin-2-yl]piperidin-4-yl]carbonylamino]-propanoic acid]	67 nM	0.046 nM
